Values after ≈ are worked out from the molar mass of the structure shown.
Columns and labels:
bacterial DNA gyrase = molecular target: bacterial DNA gyrase; design: method as in PMID 17074789; conditions: read-out: half maximum inhibitory concentration (IC50), DNA gyrase; cited from earlier work
E. coli = assay: MIC against E. coli in presence of 50 % human serum; format: cell-based; conditions: Escherichia coli; E. coli in presence of 50 % human serum; read-out: MICEc 50%HS
[1] = Reverse-phase HPLC retention time as estimate of lipophilicity; format: physicochemical; conditions: indicator of lipophilicity
Source text: As mentioned before, albicidin 1 is a rather hydrophobic compound and improving its aqueous solubility is desirable. The lipophilicity of drug molecules is commonly characterized by the octanol/water partition coefficient (logP). An alternative approach relies on the correlation between lipophilicity and the retention time (Rt) on a reverse‐phase HPLC column.[31] This approach works well if structurally related compounds are compared as is the case for this SAR study. Rt was thus used to estimate the hydrophilicity of albicidin 1 and its derivatives 2–24 (Table 1).[32]

[2] = test system: Micrococcus luteus DSM 1790; assay: MIC determination (broth microdilution); format: cell-based; conditions: DSM1790, read-out: MIC M. luteus
Experimental: (§1) After completing the syntheses, the antibacterial activity of A‐variations 4–24 was assessed by determination of MIC values against a basic set of gram‐negative and gram‐positive bacteria (Table 1). The monocyclic derivatives 4–8 featuring a cyano‐, trifluoromethyl‐, methoxy‐ and fluoro‐ substituent in para‐position were very active against the gram–negative E. coli and S. typhimurium strains with MIC values in the same range as 3rd Gen albicidin 3 or ciprofloxacin which is the gold standard for gyrase inhibitors. […] These findings are in agreement with previous studies showing good activities for cyano, trifluoromethyl, methoxy and fluoro substituents in the para‐position of different aromatic rings in the building block A.[12, 13] The activity of the monocyclic derivatives 4–8 against the gram‐positive strains B. subtilis and M. luteus were similar but slightly less pronounced compared to the lead structure 3.
(§2) 1.1 Determination of Minimal Inhibitory Concentrations (MIC)
(§3) Minimal inhibitory concentration (MIC) against selected bacterial strains values were determined according to the ninth edition of the Approved Standard M07-A9.[1] 20 μL of cryo stocks of bacterial strains were suspended in 20 mL LB medium (Lysogeny broth: 10 g/L peptone, 5 g/L yeast extract, 5 g/L NaCl). Following incubation overnight at 37°C, 200 rpm, the test inoculum was adjusted by 0.5 McFarland Standard in cation adjusted Mueller-Hinton broth (BBLTM Mueller-Hinton Broth II, Becton, Dickinson and Company, New Jersey, USA) to approximately 1x10^6 CFU mL-1. 95 μL of the bacterial inoculum were applied per well of a 96-well plate. Albicidin and albicidin derivatives 3−24 were dissolved in DMSO (100%) to an initial concentration of 2560 μg/mL and serially diluted in DMSO (100%). Initial solution and serial dilutions of Ciprofloxacin were prepared in 0.1 N HCL, respectively. 5 μL of each antibiotic dilution were added to the microdilution tray to reach albicidin concentrations of 128 μg/mL to 0.016 μg/mL per well. One row of each well plate served as a growth control without antibiotic substances and another row of the microdilution tray served as sterility control (only MHB II - media). The antimicrobial effect of the solvent (DMSO) was tested by adding 5 μL DMSO to several wells. Purity check and cell titer control were performed according to International S tandard M07-A9 on Mueller-Hinton II Agar (Mueller Hinton II Broth, 15 g/L agar-agar). Both microdilution trays and agar plates were incubated at 30−37°C for 16 h and subsequently analyzed for growth inhibition by naked eye. The following primary panel of microorganisms were purchased from German Collection of Microorganisms and Cell Cultures (DSMZ):
(§4) Escherichia coli DSM 1116
(§5) Micrococcus luteus DSM 1790
(§6) Mycobacterium phlei DSM 750
(§7) Salmonella typhimurium TA100 was kindly provided by Prof. Dr. Vera Meyer (Technische Universität Berlin). […]
(§8) was purchased as part of the single gene knockout library of E. coli K12 BW25113 (Keio collection) from Horizon Discovery group plc (Cambridge, UK).

[3] = test system: Salmonella typhimurium TA100; assay: MIC determination (broth microdilution); format: cell-based; conditions: Salmonella enterica, read-out: MIC S. typh.
Experimental: as §1, §2, §3, §4, §5, §6, §7, §8

[4] = test system: Mycobacterium phlei DSM 750; assay: MIC determination (broth microdilution); format: cell-based; conditions: Mycolicibacterium phlei, DSM750; read-out: MIC M. phlei
Experimental: as §1, §2, §3, §4, §5, §6, §7, §8

Bacillus subtilis DSM 10 = assay: MIC determination (broth microdilution); format: cell-based; conditions: DSM10, read-out: MIC B. sub.
Experimental: as §1, §2, §3, §4, §5, §6, §7, §8

E. coli BW25113 = assay: MIC determination (broth microdilution); format: cell-based; conditions: Escherichia coli, BW25113; read-out: MIC E. coli BW25113
Experimental: as §1, §2, §3, §4, §5, §6, §7, §8

E. coli DSM1116 = assay: MIC determination (broth microdilution); format: cell-based; conditions: Escherichia coli, DSM1116; read-out: MIC E. coli DSM1116
Experimental: as §1, §2, §3, §4, §5, §6, §7, §8

E. coli DNA gyrase = E. coli DNA gyrase (Escherichia coli, UniProt P0AES4); assay: E. coli gyrase DNA cleavage assay; format: biochemical; design: key to Gyrase inhibition strong+ / weak −: + strong inhibition; − weak inhibition in comparison to compound 16; conditions: for Gyrase inhibition strong+ / weak −: qualitative DNA cleavage assay at 1 μM and 10 μM, in comparison to compound 16
E. coli DNA gyrase, sequence (P0AES4 whole entry): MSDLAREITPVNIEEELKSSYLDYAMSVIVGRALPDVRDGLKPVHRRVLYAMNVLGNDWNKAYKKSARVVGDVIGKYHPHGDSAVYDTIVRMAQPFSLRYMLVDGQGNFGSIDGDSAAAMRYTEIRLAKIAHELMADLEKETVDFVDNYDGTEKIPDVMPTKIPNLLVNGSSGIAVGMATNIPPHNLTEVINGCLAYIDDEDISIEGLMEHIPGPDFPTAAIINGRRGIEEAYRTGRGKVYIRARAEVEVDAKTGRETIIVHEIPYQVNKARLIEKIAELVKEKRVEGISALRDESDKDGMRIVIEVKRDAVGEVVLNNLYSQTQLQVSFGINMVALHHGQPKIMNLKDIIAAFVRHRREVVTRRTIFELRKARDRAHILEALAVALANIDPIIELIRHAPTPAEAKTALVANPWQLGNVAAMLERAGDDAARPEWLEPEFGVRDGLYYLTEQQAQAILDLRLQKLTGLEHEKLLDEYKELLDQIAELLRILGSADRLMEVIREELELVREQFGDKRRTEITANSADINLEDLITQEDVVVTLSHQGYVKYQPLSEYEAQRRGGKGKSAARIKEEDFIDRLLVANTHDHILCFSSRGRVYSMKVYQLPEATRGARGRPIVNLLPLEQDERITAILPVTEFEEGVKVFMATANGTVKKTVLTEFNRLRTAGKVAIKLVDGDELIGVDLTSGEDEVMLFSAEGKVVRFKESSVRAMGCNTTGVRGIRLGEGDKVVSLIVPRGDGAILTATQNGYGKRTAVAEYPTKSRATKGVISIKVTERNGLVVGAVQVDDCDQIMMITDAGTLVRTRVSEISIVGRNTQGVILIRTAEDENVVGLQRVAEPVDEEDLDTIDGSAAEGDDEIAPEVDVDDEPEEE
Experimental: The target activity of the synthesized derivatives was investigated using a DNA cleavage assay with purified and enzymatically active E. coli DNA gyrase[8] (see SI). In this assay, albicidin‐stabilized complexes of gyrase and plasmid DNA are trapped, and subsequently denatured and deproteinated to reveal DNA linearized by gyrase. […] For the best performing compounds, which were able to fully stabilize the cleavage complex at a concentration of 1 μM, the concentrations at half‐maximum cleavage (CC50) were determined (Figure 3).
1.2 Escherichia coli Gyrase Cleavage Inhibition Assay
E. coli gyrase cleavage assays were executed by setting up a master mix including 0.25 µg relaxed plasmid (pBR322) in 35 mM Tris-HCl (pH 7.5), 24 mM KCl, 4 mM MgCl2, 2 mM dithithreitol (DTT), 1.8 mM spermidine, 1 mM ATP, 6.5% (wt/vol) glycerol and 0.1 mg/ml bovine serum albumin per reaction.
Of this stock solution, 13.2 µL was aliquoted for each reaction into 1.5 mL Eppendorf tubes and supplemented with 0.3 µL of the appropriate compound dilution or DMSO with a […] DMSO concentration of 2% per reaction. The reactions were started with 1.5 µL of 50 nM (pre-screening) or 40 nM (IC50 determinations) wt E. coli gyrase in dilution buffer (50 mM Tris-HCl (pH 7.5), 100 mM KCl, 2 mM DTT, 1 mM EDTA, and 50% (wt/vol) glycerol) for a […] volume of 15 µL. Reactions were incubated at 37°C for 30 minutes before addition of 1.5 µL 0.2% (wt/vol) SDS and 0.75 µL proteinase K (0.2 mg/mL) and further incubation at 37°C for 30 minutes to trap cleavage complexes. Reactions were stopped with 15 µL chloroform:isoamyl alcohol (24: 1 v/v) and 15 µL of STEB (40% (wt/vol) sucrose, […] Tris-Cl pH 8, 10 mM EDTA, 0.5 mg/mL bromophenol blue). After brief vortexing and centrifugation at 2,300g for 5 min, 15 µL of the aqueous phase was loaded onto 1% (wt/vol) agarose in TAE (Tris-acetate […] and EDTA […]) gels supplemented with 10 µg/mL ethidium bromide.
The gels were run at 85 V for 2 hours.
DNA was visualized (602/50, UV Trans, auto optimal exposure) with a ChemiDoc MP (Bio-Rad Laboratories Inc., equipped with ImageLab Touch Software v2.0.0.27) and the percentage of cleaved DNA relative to the total amount of DNA per lane was determined with ImageJ software.[2] IC50 curves were generated in GraphPad Prism (v10.0.0) using the non-linear regression curve fit variable slope with four parameters and least squares regression.

For COc1c(NC(=O)c2ccc(NC(=O)c3ccc(NC(=O)[C@H](CC#N)NC(=O)c4ccc(NC(=O)/C(C)=C/c5ccc(O)cc5)cc4)cc3)c(OC)c2O)ccc(C(=O)O)c1O [compound 1, albicidin], the IC50 (bacterial DNA gyrase) is listed as 0.04 µM.

With COc1c(NC(=O)c2ccc(NC(=O)c3ccc(NC(=O)[C@H](Cc4c[nH]nn4)NC(=O)c4ccc(NC(=O)c5ccc(F)cn5)cc4)cn3)c(OC)c2O)ccc(C(=O)O)c1O [compound 7] the MIC (E. coli) was 4 mg/L, the “Rt (retention time)” value [1] was 8.29 min and the MIC [2] was 0.125 mg/L (≈ 0.147 µM). For the same compound, the MIC [3] was no more than 0.016 mg/L, the MIC [4] was 2 mg/L (≈ 2.36 µM) and the MIC (Bacillus subtilis DSM 10) was 0.125 mg/L (≈ 0.147 µM). The MIC (E. coli BW25113) was 0.031 mg/L (≈ 0.0365 µM), the MIC (E. coli DSM1116) was 0.031 mg/L (≈ 0.0365 µM) and the “Gyrase inhibition strong+ / weak −” value (E. coli DNA gyrase) was “+”.

For COc1c(NC(=O)c2ccc(NC(=O)c3ccc(NC(=O)[C@H](Cc4c[nH]nn4)NC(=O)c4ccc(NC(=O)c5ccc([N+](=O)[O-])cn5)cc4)cn3)c(OC)c2O)ccc(C(=O)O)c1O [compound 8], the MIC (E. coli) was 8 mg/L, the “Rt (retention time)” value [1] was 8.30 min and the MIC [2] was 0.063 mg/L (≈ 0.0719 µM). For the same compound, the MIC [3] was 0.063 mg/L (≈ 0.0719 µM), the MIC [4] was 2 mg/L (≈ 2.28 µM) and the MIC (Bacillus subtilis DSM 10) was 0.25 mg/L (≈ 0.285 µM). For the same compound, the MIC (E. coli BW25113) was 0.125 mg/L (≈ 0.143 µM), the MIC (E. coli DSM1116) was 0.063 mg/L (≈ 0.0719 µM) and the “Gyrase inhibition strong+ / weak −” value (E. coli DNA gyrase) was “+”.

For COc1c(NC(=O)c2ccc(NC(=O)c3ccc(NC(=O)[C@H](Cc4c[nH]nn4)NC(=O)c4ccc(NC(=O)c5ccc6cc(O)ccc6c5)cc4)cn3)c(OC)c2O)ccc(C(=O)O)c1O [compound 10], the MIC (E. coli) was 2 mg/L, the “Rt (retention time)” value [1] was 8.15 min and the MIC [2] was 0.031 mg/L (≈ 0.0346 µM). The MIC [3] was no more than 0.016 mg/L, the MIC [4] was 1 mg/L (≈ 1.12 µM) and the MIC (Bacillus subtilis DSM 10) was 0.063 mg/L (≈ 0.0703 µM). It also gave an MIC (E. coli BW25113) of no more than 0.016 mg/L, an MIC (E. coli DSM1116) of 0.016 mg/L (≈ 0.0179 µM) and a CC50 (E. coli DNA gyrase; E. coli gyrase DNA cleavage, read-out: CC50 (concentration at half-maximum cleavage)) of 0.078 µM. For the same compound, the “Gyrase inhibition strong+ / weak −” value (E. coli DNA gyrase) was “+”.
